Data set [1] deals with HEK-293T. Kind of data set: Inhibition of thapsigargin-induced cell death in human HEK293T cells overexpressing human recombinant PAD3 assessed as increase in cell survival at 10 uM treated 15 mins prior to thapsigargin addition measured after 24 hrs drug treatment by methylene blue assay. The data set is classed as functional, cell-based.
For data set [2], the system named is NSC. Kind of data set: Inhibition of thapsigargin-induced cell death in human NSC assessed as increase in cell survival up to 1 mM treated 15 mins prior to thapsigargin addition measured after 24 hrs drug treatment by methylene blue assay. The class given is functional, cell-based.
The test system of data set [3] is NSC. As to the kind of experiment: Inhibition of thapsigargin-induced cell death in human NSC assessed as increase in cell survival at 100 nM treated 15 mins prior to thapsigargin addition measured after 24 hrs drug treatment by methylene blue assay. The data set is classed as functional, cell-based.
The subject of data set [4] is NSC. As to the kind of experiment: Cytotoxicity against human NSC assessed as decrease in cell survival at 0.1 to 1000 uM after 24 hrs by methylene blue assay. The data set is classed as cell-based.
For data set [5], the target named is T1, Protein-arginine deiminase type-3 (Homo sapiens) (UniProt Q9ULW8).
T1 sequence (whole entry): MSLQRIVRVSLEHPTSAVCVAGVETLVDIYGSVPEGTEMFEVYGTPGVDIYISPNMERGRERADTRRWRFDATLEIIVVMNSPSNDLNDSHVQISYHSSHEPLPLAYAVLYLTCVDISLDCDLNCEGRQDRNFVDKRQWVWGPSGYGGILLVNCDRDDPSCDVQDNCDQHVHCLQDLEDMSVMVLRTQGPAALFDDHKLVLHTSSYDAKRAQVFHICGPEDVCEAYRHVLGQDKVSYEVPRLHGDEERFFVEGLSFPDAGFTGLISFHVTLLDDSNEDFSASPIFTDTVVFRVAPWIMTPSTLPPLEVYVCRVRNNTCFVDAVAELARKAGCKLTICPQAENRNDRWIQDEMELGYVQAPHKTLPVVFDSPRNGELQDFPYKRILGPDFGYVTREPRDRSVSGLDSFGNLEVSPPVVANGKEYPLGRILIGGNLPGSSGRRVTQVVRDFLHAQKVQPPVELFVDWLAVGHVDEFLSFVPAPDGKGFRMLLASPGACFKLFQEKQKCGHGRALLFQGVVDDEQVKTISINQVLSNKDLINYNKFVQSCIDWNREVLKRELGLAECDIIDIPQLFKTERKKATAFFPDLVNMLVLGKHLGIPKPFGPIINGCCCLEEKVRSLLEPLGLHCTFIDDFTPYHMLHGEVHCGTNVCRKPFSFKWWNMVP
As to the kind of experiment: Competitive reversible inhibition of human recombinant PAD3 expressed in HEK293T cells assessed as rate of citrullination of BAEE at 10 to 100 uM by Michaelis-Menten equation analysis using colorimetry. The class given is cell-based. Particulars: HEK-293T.

In data set [6] the target is T1, Protein-arginine deiminase type-3 (Homo sapiens). As to the kind of experiment: Inhibition of human recombinant PAD3 expressed in HEK293T cells assessed as conversion of BAEE to sodium benzoyl-L-citrulline at 100 uM by colorimetric analysis. The class given is cell-based. Particulars: HEK-293T.
The target is the same in data set [7]. As to the kind of experiment: Inhibition of human recombinant PAD3 expressed in HEK293T cells assessed as conversion of BAEE to sodium benzoyl-L-citrulline up to 1 mM by colorimetric analysis. The class given is cell-based. To be noted: HEK-293T.
In data set [8] the test system is HEK-293T. As to the kind of experiment: Inhibition of thapsigargin-induced cell death in human HEK293T cells overexpressing human recombinant PAD3 assessed as increase in cell survival at 100 uM treated 15 mins prior to thapsigargin addition measured after 24 hrs drug treatment by methylene blue assay. The data set is classed as functional, cell-based.
For data set [9], the system named is NSC. Kind of data set: Inhibition of thapsigargin-induced cell death in human NSC assessed as increase in cell survival at >10 uM treated 15 mins prior to thapsigargin addition measured after 24 hrs drug treatment by methylene blue assay. The class given is functional, cell-based.
Data set [10] relates to NSC. Kind of data set: Inhibition of thapsigargin-induced cell death in human NSC assessed as cell survival at <=1 uM treated 15 mins prior to thapsigargin addition measured after 24 hrs drug treatment by methylene blue assay. The data set is classed as functional, cell-based.

Activity calls are given as the source filed them. No cut-off for these calls is given here.

On to `O=C1CN=C(NCCc2c[nH]c3ccccc23)N1`, for which the inhibition result in data set [1], in data set [2], in data set [3], in data set [5], in [6] and in data set [7] was “Active” in each case. The Activity entry in data set [4] was “Non-toxic”.

In the case of `N=C(CCl)NCCC[C@H](NC(=O)c1ccccc1)C(N)=O`, the inhibition result in [8] and in [9] was “Active” each time. Also, in data set [10], the inhibition result is “inactive”.

For the origin of these results see ChEMBL document CHEMBL3217473, “Discovery of a structurally novel, drug-like and potent inhibitor of peptidylarginine deiminase” (Medchemcomm, 2013).
